What all share (assay): inhibition of tumour cell growth, NCI panel, 48 h
Test [1] relates to DLD-1 colon.
Test [2] relates to EKVX NSCLC.
In test [3] the test system is HCC-2998 colon.
The subject of test [4] is IGROV1 ovarian.
The subject of test [5] is OVCAR-5 ovarian.
Test [6] relates to RXF 393 renal.
The subject of test [7] is SK-OV-3 ovarian.
For test [8], the system named is UACC-62 melanoma.
Test [9] concerns NCI-H522 lung.
The test system of test [10] is NCI/ADR-RES ovarian.

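Assay format: 96-well plates, 48-hour exposure. The concentration for full growth arrest is given as TGI.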

From PubChem BioAssay (NCI) come the findings set out here.

For the molecule `O=C(NNc1ccc([N+](=O)[O-])cc1)C1OC(CO)C(O)C1O` (stereo not drawn), the TGI in [1], in [2], in test [3], in test [4], in test [5] and in test [6] was greater than 100 µM in each case. Moreover, the TGI in test [7] and in test [8] was greater than 100 µM in each case.
With `C=C(Cl)C(=C)CCC(Cl)C(C)(C)Cl` (stereo not drawn), the TGI in test [2], in test [3], in [4], in test [9], in [10] and in test [5] was greater than 100 µM in each case. Moreover, the TGI in test [6], in test [7] and in test [8] was greater than 100 µM throughout.
On to `Cc1cc2nnn(C3CCCO3)c2cc1C` (stereo not drawn), for which the TGI in test [2], in test [3], in test [4], in test [9], in [10] and in test [5] was greater than 100 µM throughout. For the same molecule, the TGI in [6], in test [7] and in [8] was greater than 100 µM each time.
Consider `CNc1ccc([N+](=O)[O-])cc1C(=O)N1CCC[C@H]1CO`, for which the TGI in [2], in test [3], in [4], in [9], in test [10] and in test [5] was greater than 100 µM each time. In addition, the TGI in test [6], in [7] and in [8] was greater than 100 µM each time.
For `CCOC(=O)c1c(C)n(CCN2CCN(C)CC2)c2ccc(OC)cc12`, the TGI is greater than 100 µM in test [2]; 30.7 µM in [3]; greater than 100 µM in test [4]; greater than 100 µM in [9]; greater than 100 µM in test [10]; greater than 100 µM in test [5]. In addition, the figures for the TGI in [6], in test [7] and in test [8] were greater than 100 µM, greater than 100 µM and 30.7 µM, respectively.
As to `NC(=O)Nc1n[nH]c(-c2ccccc2)n1`, the TGI in test [2], in [3], in [4], in test [9], in [10] and in [5] was greater than 100 µM each time. The TGI in test [6], in test [7] and in [8] was greater than 100 µM each time.
`COc1cc(/C=C2\N=C(c3ccccc3)N(c3ccc(C(=O)c4ccccc4)cc3N3C(=O)/C(=C/c4cc(OC)c(OC)c(OC)c4)N=C3c3ccccc3)C2=O)cc(OC)c1OC`: the TGI in test [2] was 76.7 µM; in test [3] it was 11.2 µM; in [4] it was greater than 100 µM; in test [9], 26.1 µM; in test [10] it was 34.1 µM; in test [5], greater than 100 µM. For the same molecule, the TGI in [6] came out at 34.9 µM; in test [7], 55.4 µM; in [8], 24.7 µM.
In the case of `OCC(CO)CC1COc2ccccc2O1` (stereo not drawn), the TGI in [2], in [3], in [4], in test [9], in test [10] and in [5] was greater than 10 µM throughout. Moreover, the TGI in [6], in test [7] and in [8] was greater than 10 µM throughout.
In the case of `COC(=O)C1CC(C=O)=C(SC)N1` (stereo not drawn), the TGI in test [2], in test [3], in test [4], in [9], in test [10] and in test [5] was greater than 50 µM throughout. In addition, the TGI in test [6], in test [7] and in test [8] was greater than 50 µM throughout.
As to `CCOC(=O)C1C2C1C1C(C(=O)OCC)C21` (stereo not drawn), the TGI in [2], in [3], in test [4], in test [9], in test [10] and in test [5] was greater than 100 µM each time. The TGI in test [6], in [7] and in test [8] was greater than 100 µM each time.
In the case of `Cc1nc2ccccc2n1CCc1nc2ccccc2[nH]1`, the TGI in test [2], in test [3], in test [4], in [9], in test [10] and in [5] was greater than 100 µM in each case. Moreover, the TGI in test [6], in [7] and in test [8] was greater than 100 µM throughout.
On to `Cc1cc(=O)[nH]c(S(=O)(=O)NC(=S)Nc2ccc(Br)cc2)n1`, for which the TGI in [2] was greater than 100 µM; in test [3] it was greater than 100 µM; in test [4], greater than 100 µM; in [9], 70 µM; in [10] it was greater than 100 µM; in test [5] it was greater than 100 µM. Moreover, the TGI in test [6], in test [7] and in test [8] was greater than 100 µM in each case.
On to `CCCS(=O)OC1C(C2COC(C)(C)O2)OC2OC(C)(C)OC21` (stereo not drawn), for which the TGI in test [2] was found to be 32 µM; in test [3] it was 32.6 µM; in test [4], 33.2 µM; in test [9], 25.9 µM; in test [10] it was 46.1 µM; in test [5], 26.1 µM. Also, the TGI in [6] was 25.5 µM; in test [7], greater than 86.8 µM; in [8], 35.2 µM.
On to `CC1Oc2c(c(O)cc3oc(=O)cc(-c4ccccc4)c23)C(=O)C1C` (stereo not drawn), for which the TGI in test [1], in [2], in [4], in test [9], in [7] and in [8] was greater than 100 µM in each case.
Turning to `Cc1nc(-c2ccc(Cl)cc2)cn2c1nc1ccccc12`, the TGI in [2], in [3], in test [4], in test [9], in [10] and in test [5] was greater than 100 µM in each case. Further, the TGI in [6], in [7] and in [8] was greater than 100 µM each time.
Turning to `O=[N+]([O-])c1ccc(-c2nc3ccccc3o2)cc1`, the TGI in [2], in [3], in test [4], in test [9], in test [10] and in test [5] was greater than 100 µM in each case. In addition, the TGI in [6], in test [7] and in test [8] was greater than 100 µM each time.
Regarding `CCSc1nn(-c2c3ccccc3nc3ccccc23)c(=S)s1`, the TGI in test [2], in test [3], in test [4], in test [9], in [10] and in test [5] was greater than 100 µM in each case. In addition, the TGI in [6], in test [7] and in test [8] was greater than 100 µM in each case.
Regarding `CC[N+]1(C)CCC(O)(/C=C/c2ccc(Cl)c(Cl)c2)C(C(=O)/C=C/c2ccc(Cl)c(Cl)c2)C1` (stereo not drawn), the TGI in test [2] was 23.3 µM; in test [3] it was 3.96 µM; in test [4], 7.8 µM; in test [9], 3.34 µM; in test [10], 6.63 µM; in test [5], 7.13 µM. Further, the TGI in test [6] was found to be 4.02 µM; in test [7], 16.5 µM; in test [8], 3.64 µM.
`C1CN(C23OC4(N5CCOCC5)C5C6CC(C7C6C4C72)C53)CCO1` (stereo not drawn): the TGI in test [2], in test [3], in test [4], in [9], in [10] and in test [5] was greater than 100 µM each time. For the same molecule, the TGI in test [6], in [7] and in [8] was greater than 100 µM throughout.
Take `C=CC(=O)N1C/C(=C\c2ccc(F)cc2)C(=O)/C(=C/c2ccc(F)cc2)C1`: the TGI in test [2] came to 3.88 µM; in test [3] it was 1.15 µM; in test [4] it was 1.38 µM; in [9], 1.94 µM; in test [10], 20.1 µM; in [5], 2.7 µM. Besides, the figures for the TGI in test [6], in test [7] and in [8] were 0.556 µM, 2.38 µM and 0.223 µM, respectively.
With `O=C1C(=O)C(CCCO)(CCCO)CCCCCCCCC1(CCCO)CCCO`, the TGI in test [2], in test [3], in test [4], in test [9], in test [10] and in [5] was greater than 100 µM in each case. The values for the TGI in test [6], in test [7] and in test [8] were 68.8 µM, greater than 100 µM and greater than 100 µM, respectively.
Take `Clc1cccc(Cl)c1C1ON=C(c2ccccc2)N1C12CC3CC(CC(C3)C1)C2` (stereo not drawn): the TGI in [2] is greater than 100 µM; in test [3], greater than 100 µM; in [4], greater than 100 µM; in test [9], greater than 100 µM; in test [10] it was 84.4 µM; in test [5], greater than 100 µM. For the same molecule, the TGI in test [6], in test [7] and in test [8] was greater than 100 µM each time.
For `CC(CN(C)C)C(O)(c1ccccc1)c1ccccc1` (stereo not drawn), the TGI was greater than 100 µM in [2]; 93.2 µM in test [3]; greater than 100 µM in [4]; greater than 100 µM in test [9]; greater than 100 µM in test [10]; greater than 100 µM in test [5]. Further, the TGI in test [6], in test [7] and in test [8] was greater than 100 µM in each case.
